# Like-named read-outs stand apart in the source and are kept apart here.
# Experiments:
# [1] = test system: MDA-MB-231; assay: MTT proliferation assay, MDA-MB-231; assay type: cell-based, human; conditions: Homo sapiens, read-out: IC50 (μM) MDA-MB-231
# Description: (§1) The antiproliferative and anti-invasive activities of compounds 1-14 were quantified using MTT and cell invasion assay kits, respectively. Latrunculin A (compound 1) was used as a positive control in all biological assays, because it is known to be an actin polymerization inhibitor, with cytotoxic, antiproliferative, and anti-invasive activities. The 3-[4,5-dimethylthiazol-2-yl]-2,5-diphenyl tetrazolium bromide (MTT) assay selectively detects living cells in a quantitative, colorimetric fashion, based on a living cell's ability to reduce MTT to an insoluble, purple formazan dye. The MTT assay is routinely used to assess cytotoxicity and proliferation inhibition activities. The antiproliferative activities of compounds 1-14 were measured against two human mammary gland adenocarcinoma cell lines, MCF7 and MDA-MB-231, and against human prostate cancer cells PC-3 at five different doses (0.1, 0.5, 1, 10, and 50 μM). While many of the semisynthetic latrunculins had similar activity levels, some had greater activity than compound 1. […] Although the MDA-MB-231 cells were more resistant than MCF7 against most latrunculin derivatives tested, compound 14 had potent activity against both cell lines.
# (§2) MTT Proliferation Assay. The growth of MCF7, MDA-MB-231, and PC-3 cancer cell lines was measured using an MTT kit (TACS™, TREVIGEN®, Inc.). Exponentially growing cells were plated in a 96-well plate at a density of 8×10^3 cells per well, and allowed to attach for 24 h. Complete growth medium was then replaced with 100 μL of RPMI serum-free medium containing various concentrations (50, 10, 1, 0.5, 0.1 μM) of the particular test compound. Culture continued at 37° C. under 5% CO2. After 72 h of culture, the cells were treated with MTT solution (10 μL/well) at 37° C. for 4 h. The color reaction was stopped by adding solubilization/stop solution (100 μL/well). Incubation continued at 37° C. continued to completely dissolve the formazan dye product. Absorbance of the samples was determined at 570 nm with an ELISA plate reader (BioTek, VT). The number of cells per well was calculated against a standard curve that had been prepared by plating various concentrations of cells, as determined by hemocytometer, at the start of each experiment. IC50 for each compound was calculated using a nonlinear regression curve fit of log concentration versus the number of cells/well, using GraphPad Prism 5.0 (GraphPad Software, La Jolla, Calif.).
# [2] = test system: PC-3; assay: MTT proliferation assay, PC-3; assay type: cell-based, human; conditions: Homo sapiens, read-out: IC50 (μM) PC-3
# Description: as §1, §2
# [3] = molecular target: T1, pyrene-conjugated actin (Oryctolagus cuniculus, UniProt P68135); assay: Pyrene actin polymerization assay; assay type: biochemical; conditions: for inhibition at 0.1 µM: read-out: Actin polymerization inhibition (%) 100 nM; for inhibition at 1 µM: read-out: Actin polymerization inhibition (%) 1 μM; for IC50: mean ± SEM, triplicate
# T1 construct: purchased Cytoskeleton, Denver, Colo
# Experimental: An actin polymerization kit was used to assess the direct actin-binding activity of each analogue at two concentrations: 100 nM and 1 μM. This kit is based on the enhanced fluorescence of pyrene-conjugated actin that occurs during polymerization. When pyrene-G-actin (monomer) forms pyrene-F-actin, fluorescence is enhanced. The enhanced fluorescence is used to follow polymerization over time. Table 2 lists activities as the percentage of actin polymerization inhibition, compared to the negative vehicle control (DMSO), along with calculated IC50.
# Pyrene-Actin Polymerization Assays. Actin polymerization assays were performed in accordance with the manufacturer's instructions (Cytoskeleton, Denver, Colo.). Briefly, […] final concentration of monomeric actin (1:10 pyrene labeled) was incubated on ice for 10 min with one of various concentrations of one of the latrunculin derivatives. Samples were then equilibrated 10 min in an ELISA plate reader (BioTek, VT), after which polymerization was induced by adding KCl, MgCl2, and ATP. Compounds 1-14 were tested at 0.1, 0.5, 1.0, and 10 μM. The IC50 for each compound was calculated using GraphPad Prism 5.0.
# Pyrene-actin polymerization assays. Actin polymerization inhibitory activity is assessed using the Cytoskeleton Actin Polymerization kit (Cytoskeleton, Denver, Colo.). Briefly, […] (final concentration) of monomeric actin (1:10 pyrene labeled) is incubated on ice for 10 min with one of various concentrations of the test latrunculin compound. Samples are equilibrated 10 min in an ELISA plate reader (BioTek, VT), after which polymerization is induced by adding KCl, MgCl2, and ATP. Compounds are tested at 0.1, 0.5, 1.0, and 10 μM. The IC50 for each compound is calculated using GraphPad Prism 5.0.
# [4] = test system: MCF7; assay: MTT proliferation assay, MCF7; assay type: cell-based, human; conditions: Homo sapiens, read-out: IC50 (μM) MCF7
# Description: as §1, §2
# [5] = test system: MDA-MB-231 cells; assay: Cultrex BME cell invasion assay; assay type: cell-based, human
# Experimental: The anti-invasive activities of compounds 1-14 were measured using a 96 well basement membrane extract (BME) cell invasion assay kit against the highly metastatic MDA-MB-231 cells. This assay employs a simplified Boyden Chamber with a polyethylene terephthalate membrane (8 μm pore size). Cell invasion was quantified using calcein-acetomethylester (calcein-AM). Cells internalize calcein-AM; intracellular esterases then cleave the acetomethylester moiety to generate free calcein. Free calcein fluoresces brightly. This fluorescence may be used to quantify the number of cells that have invaded across the BME. To correlate the anti-invasive activities of the latrunculin A derivatives with their actin-disrupting activities, compounds 1-14 were each tested at non-toxic concentrations. […] Accordingly, all compounds were tested at 0.1, 0.5, and 1.0 μM. Compound 3 killed 17% of MDA-MB-231 cells at 1.0 μM, while the same dose of compound 3 inhibited 95% of MDA-MB-231 cells' invasion. […] The anti-invasive activities of compounds 1-14 are attributed primarily to the inhibition of actin polymerization, not to cell death per se.
# Cultrex® Cell Invasion Assay. Anti-invasive activities were measured using Trevigen's Cultrex® Cell Invasion Assay as described in K. Tamilarasan et al., BMC Cell Biol. 2006, 7, 17-30; and P. Borghesani et al., Development. 2002, 6, 1435-1442. About 50 μL of basement membrane extract (BME) coat was added to each well. After incubation for 4 h at 37° C. under 5% CO2, 50,000 MDA-MB-231 cells in 50 μL of serum free RPMI medium were added to each well in the top chamber, along with the test compound at one of several concentrations (0.1, 0.5, 1 μM). About 150 μL of RPMI medium was added to the lower chamber in 10% FBS and penicillin/streptomycin, using fibronectin ([…]) and N-formyl-met-leu-phe (10 nM) as chemoattractants. Cells were allowed to migrate to the lower chamber at 37° C. under 5% CO2. After 24 h, the top and bottom chambers were aspirated and washed with the washing buffer that had been supplied with the kit. About 100 μL of Cell Dissociation Solution/Calcein-AM solution was added to the bottom chamber, and the cells were incubated at 37° C. under CO2 for 1 h. Briefly, the cells internalize calcein-AM, and then the intracellular esterases cleave the AM moiety to generate free calcein. […] The number of cells that had invaded through the BME coat was calculated using a standard curve.
# [6] = MDA-MB-231, MTT, 72 h, mean ± SEM
# [7] = 100 nM, compared to vehicle control (DMSO)
# [8] = 1 μM, compared to vehicle control (DMSO)
Compound,"IC50 [1, 6]","IC50 ([2]; PC-3, MTT, 72 h)","inhibition at 0.1 µM [3, 7]","inhibition at 1 µM [3, 8]",IC50 [3],"IC50 ([4]; MCF7, MTT, 72 h, mean ± SEM)","IC50 ([1]; MDA-MB-231, 72 h)","IC50 ([2]; PC-3, 72 h)",inhibition at 0.1 µM [3],inhibition at 1 µM [3],"IC50 ([4]; MCF7, 72 h)",anti-invasive activity compared with compound 1 ([5]; 1 and 0.5 μM doses),fold more active against cell invasion than latrunculin A (compound 1) ([5]; 0.5 μM)
"CCN1C(=O)SC[C@H]1[C@@]1(OC)C[C@H]2C[C@@H](CC[C@H](C)/C=C\C=C\CC/C(C)=C\C(=O)O2)O1 [Compound 6, 17-O-Methyl-N-ethyllatrunculin A]",> 50 µM,29.3 µM,0%,18%,> 10000 nM,20.6 ± 2.77 µM,,,,,,,
"CO[C@]1([C@@H]2CSC(=O)N2Cc2ccccc2)C[C@H]2C[C@@H](CC[C@H](C)/C=C\C=C\CC/C(C)=C\C(=O)O2)O1 [Compound 9, 17-O-Methyl-N-benzyllatrunculin A]",6.82 ± 1.41 µM,8.3 µM,33%,67%,333 ± 76 nM,0.78 ± 0.24 µM,,,,,,,
"C/C1=C/C(=O)O[C@@H]2C[C@@H](CC[C@H](C)/C=C\C=C\CC1)O[C@@](O)([C@@H]1CSC(=O)N1)C2 [Compound 1, Latrunculin A, reference compound]",,,,,284 ± 72 nM,,4.19 ± 1.49 µM,3.9 µM,30%,73%,0.48 ± 0.04 µM,,
"C/C1=C/C(=O)O[C@@H]2C[C@@H](CC[C@H](C)/C=C\C=C\CC1)O[C@@](OC(=O)c1ccccc1)([C@@H]1CSC(=O)N1)C2 [Compound 4, 17-O-Benzoyllatrunculin A]",5.05 ± 0.36 µM,6.44 µM,23%,67%,466 ± 51 nM,0.52 ± 0.14 µM,,,,,,equipotent to compound 1,
"CO[C@]1([C@@H]2CSC(=O)N2CCCO)C[C@H]2C[C@@H](CC[C@H](C)/C=C\C=C\CC/C(C)=C\C(=O)O2)O1 [Compound 8, 17-O-Methyl-N-(3′-hydroxypropyl)latrunculin A]",> 50 µM,34.2 µM,0%,21%,8550 ± 574 nM,19.2 ± 3.91 µM,,,,,,,
"CO[C@]1([C@@H]2CSC(=O)N2C)C[C@H]2C[C@@H](CC[C@H](C)/C=C\C=C\CC/C(C)=C\C(=O)O2)O1 [Compound 5, 17-O-Methyl-N-methyllatrunculin A]",19.9 ± 3.27 µM,19.4 µM,11%,19%,> 10000 nM,13.1 ± 3.69 µM,,,,,,,
"CO[C@]1([C@@H]2CSC(=O)N2C2CCCC2)C[C@H]2C[C@@H](CC[C@H](C)/C=C\C=C\CC/C(C)=C\C(=O)O2)O1 [Compound 7, 17-O-Methyl-N-cyclopentanelatrunculin A]",5.07 ± 0.72 µM,7.24 µM,20%,49%,1050 ± 271 nM,5.3 ± 1.32 µM,,,,,,,
"CO[C@]1([C@@H]2CSC(=O)N2C(=O)c2ccccc2)C[C@H]2C[C@@H](CC[C@H](C)/C=C\C=C\CC/C(C)=C\C(=O)O2)O1 [Compound 10, 17-O-Methyl-N-benzoyllatrunculin A]",4.48 ± 1.79 µM,4.7 µM,17%,53%,834 ± 109 nM,0.55 ± 0.091 µM,,,,,,,
"C/C1=C/C(=O)O[C@@H]2C[C@@H](CC[C@H](C)/C=C\C=C\CC1)O[C@@](O)([C@@H]1CSC(=O)N1Cc1ccccc1)C2 [Compound 13, N-Benzyllatrunculin A]",2.72 µM,3.8 µM,24%,64%,445 ± 79 nM,0.63 µM,,,,,,,3.1 fold
"CO[C@]1([C@@H]2CSC(=O)N2)C[C@H]2C[C@@H](CC[C@H](C)/C=C\C=C\CC/C(C)=C\C(=O)O2)O1 [Compound 2, 17-O-Methyllatrunculin A]",23.4 ± 0.85 µM,22.3 µM,6%,21%,9230 ± 825 nM,10.2 ± 1.72 µM,,,,,,,
